The values that follow come from US9718823B2, “2, 6-Di-nitrogen-containing substituted purine derivative, and preparation method, pharmaceutical composition and use thereof” (Zhejiang Medicine Co., Ltd. Xinchang Pharmaceutical Factory, priority 2013, dated 2017).

As usually defined, the IC50 is the point on the concentration scale where inhibition reaches its midpoint. Read a low IC50 as greater potency.

Where two headings read alike, the source gives them in different places.

The test system of assay [1] is BT474 human breast cancer cell strain. In words: Antitumor cell proliferation in vitro, CCK-8 detection kit, BT474. The following applies: Homo sapiens, BT-474, 72 h, BT-474 cells, 1st and 2nd test where printed. It counts as cell-based. The procedure: (§1) The half inhibitory concentration IC50 of proliferation of three kinds of tumor cell strain (U87MG, PC-3, BT474) for 12 candidate compounds of the present invention is detected by CCK-8 detection kits.
BT474 human breast cancer cell strain (cell bank of Chinese Academy of Sciences) Reagents and materials:
(§2) The studied compounds are dissolved by DMSO to make the final concentration 10 mM.
(§3) • a) Collecting the cells in logarithmic phase, counting, and resuspending the cells with complete medium. • b) Adjusting the concentration of cells to a suitable concentration, inoculating in 96 well plates, each well is inoculated to 100 μl cell suspension.
(§4) c) incubating cells for 24 hours in a 5% CO2 incubator at temperature of 37° C., under the condition of 100% relative humidity.
(§5) a) The cells in logarithmic phase is collected, counted, resuspended with complete medium. The concentration of cells is adjusted to a suitable concentration (determined in accordance with the optimizable test results of cell density), and the cells is inoculated in 96 well plates, wherein each well is inoculated 100 μl cell suspension, Cells are incubated for 24 hours in 5% CO2 incubator at temperature of 37° C. under the condition of 100% relative humidity.
(§6) b) The test compounds are diluted to 500 μM with culture medium, then diluted in series eight times. […] as 25 μl/well. The final concentrations of the compounds are diluted from 100 μM to 0 μM, with 4 times dilution, and there are a total of 10 concentration points.
(§7) c) Cells are incubated for 72 hours in 5% CO2 incubator at temperature of 37° C. under the condition of 100% relative humidity.
(§8) d) The culture medium is aspirated and discarded, and complete medium containing 10% CCK-8 is incubated in a incubator at 37° C. for 2˜4 hours.
(§9) e) After shocking gently, the absorbance of the culture medium is measured at 450 nm wavelength on SpectraMax M5 Microplate Reader, with the absorbance at 650 nm as reference, to calculate the inhibition rate.
Background: Tetrazolium assays rely on reduction of a dye to a coloured formazan, in cell work by metabolically active cells.

Assay [2] deals with T1, PI3K α (Homo sapiens, UniProt P42336).
T1 construct: purchased Millipore 14-602
T1 sequence (P42336 whole entry): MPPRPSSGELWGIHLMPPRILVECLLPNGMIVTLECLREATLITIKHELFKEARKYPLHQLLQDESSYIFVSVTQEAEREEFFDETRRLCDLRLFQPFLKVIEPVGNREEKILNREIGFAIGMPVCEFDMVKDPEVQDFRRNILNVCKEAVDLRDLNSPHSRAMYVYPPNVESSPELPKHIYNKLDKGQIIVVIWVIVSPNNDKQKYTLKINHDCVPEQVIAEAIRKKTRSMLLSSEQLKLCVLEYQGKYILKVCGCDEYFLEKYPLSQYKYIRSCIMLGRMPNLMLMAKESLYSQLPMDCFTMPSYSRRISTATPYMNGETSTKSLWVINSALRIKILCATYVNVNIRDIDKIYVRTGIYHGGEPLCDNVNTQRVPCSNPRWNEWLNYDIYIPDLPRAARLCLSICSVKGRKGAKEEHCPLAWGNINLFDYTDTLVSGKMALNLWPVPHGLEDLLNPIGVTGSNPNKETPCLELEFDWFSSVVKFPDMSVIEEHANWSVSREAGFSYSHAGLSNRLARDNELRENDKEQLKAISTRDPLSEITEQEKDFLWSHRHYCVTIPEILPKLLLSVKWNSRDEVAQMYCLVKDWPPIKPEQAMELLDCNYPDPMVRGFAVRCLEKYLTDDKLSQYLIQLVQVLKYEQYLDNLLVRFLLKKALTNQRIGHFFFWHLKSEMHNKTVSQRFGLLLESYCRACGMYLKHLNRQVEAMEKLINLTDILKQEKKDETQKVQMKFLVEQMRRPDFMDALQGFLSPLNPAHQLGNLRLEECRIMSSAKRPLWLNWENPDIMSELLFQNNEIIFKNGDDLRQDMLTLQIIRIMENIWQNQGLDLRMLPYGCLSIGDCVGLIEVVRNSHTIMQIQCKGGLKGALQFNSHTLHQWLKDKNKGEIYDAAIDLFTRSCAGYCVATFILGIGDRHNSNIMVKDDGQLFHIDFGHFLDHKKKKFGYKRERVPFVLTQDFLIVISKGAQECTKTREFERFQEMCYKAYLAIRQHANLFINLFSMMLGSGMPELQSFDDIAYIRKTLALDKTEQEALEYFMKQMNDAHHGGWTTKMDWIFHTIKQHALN
T1 sequence (P27986 whole entry partner): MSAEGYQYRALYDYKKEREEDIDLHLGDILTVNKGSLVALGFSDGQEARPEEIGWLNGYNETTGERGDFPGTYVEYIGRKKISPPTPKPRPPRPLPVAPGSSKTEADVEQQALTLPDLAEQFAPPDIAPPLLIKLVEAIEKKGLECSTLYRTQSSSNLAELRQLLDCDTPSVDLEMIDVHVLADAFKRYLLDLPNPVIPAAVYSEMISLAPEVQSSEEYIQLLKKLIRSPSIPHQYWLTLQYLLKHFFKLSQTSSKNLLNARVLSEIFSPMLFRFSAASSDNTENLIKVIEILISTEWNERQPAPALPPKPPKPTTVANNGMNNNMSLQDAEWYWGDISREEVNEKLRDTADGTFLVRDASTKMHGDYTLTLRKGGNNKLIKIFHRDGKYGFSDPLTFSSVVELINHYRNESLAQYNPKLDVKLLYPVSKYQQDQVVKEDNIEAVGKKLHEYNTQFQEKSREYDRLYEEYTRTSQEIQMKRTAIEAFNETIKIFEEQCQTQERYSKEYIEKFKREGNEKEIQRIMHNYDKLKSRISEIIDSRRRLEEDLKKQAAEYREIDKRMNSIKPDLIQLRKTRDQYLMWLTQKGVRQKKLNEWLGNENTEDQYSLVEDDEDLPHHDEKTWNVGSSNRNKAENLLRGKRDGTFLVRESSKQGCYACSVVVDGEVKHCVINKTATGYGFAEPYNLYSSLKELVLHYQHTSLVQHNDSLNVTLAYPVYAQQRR
Kind of assay: Inhibitory activity to PI3K α, PI 3-Kinase (human) HTRF Assay kit. As to conditions: read-out: % Inhibition Rate to PI3K α. It counts as biochemical. The method in brief:
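HTRF assay using human PI3Kα at 8 ng/well, 100 μM ATP and PIP2 (2× working stock 20 μM) in 20 μL reaction containing 1% DMSO. Screened at 10 μM and 1 μM for percent inhibition, with selected compounds then taken to IC50 determination.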
(TR-FRET usually uses a lanthanide donor and a delayed reading to cut background.)

The subject of assay [3] is PC-3 human prostate cancer cell strain. In words: Antitumor cell proliferation in vitro, CCK-8 detection kit, PC-3. Format: cell-based. As to conditions: Homo sapiens, PC-3, 72 h, PC-3 cells, 1st and 2nd test where printed. The procedure: as §1
PC-3 human prostate cancer cell strain (cell bank of Chinese Academy of Sciences)
as §2, §3, §4, §5, §6, §7, §8, §9

Assay [4] concerns the target T2, PI3Kδ (Homo sapiens, UniProt O00329).
T2 construct: purchased Millipore 14-604
In words: Inhibitory activity to PI3K δ, PI 3-Kinase (human) HTRF Assay kit. It counts as biochemical. As to conditions: for Inhibition rate % to PI3K delta: dihydrate di-methanesulfonate. The method in brief: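 Inhibition of human PI3Kδ was assessed with the Millipore PI 3-Kinase (human) HTRF Assay kit. PI3Kδ was screened at 2 ng/well, diluted in 2×PIP2 operating fluid. Reactions were 20 μL and contained 100 μM ATP. Stop solution was Stop A and Stop B mixed 3:1. Detection solution was DM C, DM A and DM B mixed 18:1:1. Compounds were prepared from DMSO stocks, and percent inhibition was reported.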

Assay [5] deals with PC-3 cell Akt (Ser473) phosphorylation. Kind of assay: Inhibition of phosphorylation level of PC-3 cell Akt (Ser473), Cisbio HTRF phospho Akt (Ser473) cell-based assay. The following applies: Homo sapiens, PC-3, PC-3 cells, hEGF 100 ng/ml stimulation; 1st and 2nd test where printed. Further details: species or system human. The procedure: The inhibitory activity of the compounds of present invention to the phosphorylation level of PC-3 cell Akt (Ser473) is studied by using Cisbio HTRF phospho Akt (Ser473) cell-based assay test kit.
Cell strain: PC-3 prostate cancer cells line (cell bank of Chinese Academy of Sciences) is cultured by using culture medium (F12K+10% FBS).
hEGF is prepared as stock solution of 100 ug/ml with 10 mM acetic acid, and the stock solution is diluted to 200 ng/ml with serum-free medium, added 50 ul to each well to be stimulated.
b) Preparation of Complete Lysate • 4×Lysis Buffer is diluted 4 times with ddH2O to prepare 1×Lysis Buffer. • 100×Blocking Reagent is diluted 100 times with 1×Lysis Buffer.
c) Preparation of Detection Liquid • 20×Anti-Phospho-Akt is diluted 20 times with Detection Buffer. • 20×Anti-Akt is diluted 20 times with Detection Buffer.
The compounds are diluted with DMSO, and the working concentration of compounds is 100 times of detection concentration.
Cells in logarithmic growth phase are collected, counted, and resuspended with complete culture medium;
The cell concentration is adjusted to appropriate concentration, and cell suspension is inoculated into 96 well plates at 50 μl per well;
Cells are incubated for more than 4 h in the 5% CO2 incubator at temperature of 37° C., relative humidity of 100%;
Cell plate is removed from the incubator. The cell suspension is aspirated gently, and 50 ul serum-free F12K medium is quickly added, then the cell plate is placed into the incubator to culture overnight.
The compounds are diluted in a linear gradient with DMSO.
0.5 ul compounds is added into the test well, mixed on oscillators, and incubated at room temperature for 2 hours.
Proportioned hEGF solution is added to test well at 50 μl per well, and the final concentration is 100 ng/ml. serum-free medium is added into The negative control well at 50 μl per well.
The solution is mixed on oscillator and incubated at room temperature for 2 hours.
The liquid in 96 well plates is aspirated by multichannel pipette or the supernatant is discarded gently. The proportioned complete lysate is added quickly at 50 μl per well.
The solution is mixed on oscillator and lysed at room temperature for 30 min.
16 μl cell lysate is transferred from the 96 well plates to white low volume 384 well plates, and the proportioned two pairs of detection antibody are added. The solution is mixed on oscillator, and incubated at room temperature for 4 hours to detect the readings.

For assay [6], the system named is U87MG human glioblastoma Multiforme cell strain. In words: Antitumor cell proliferation in vitro, CCK-8 detection kit, U87MG. Format: cell-based. The following applies: U-87 MG, 72 h, U-87MG cells, 1st and 2nd test where printed. Here is the method: as §1
U87MG human glioblastoma Multiforme cell strain (cell bank of Chinese Academy of Sciences)
as §2, §3, §4, §5, §6, §7, §8, §9

Setting [7] is: 1 μM (Table 7), read-out: Inhibition rate % to PI3Kδ.
The mark [8] stands for this setting: 10 μM (Table 7), read-out: Inhibition rate % to PI3Kδ.

T2 sequence (O00329 whole entry): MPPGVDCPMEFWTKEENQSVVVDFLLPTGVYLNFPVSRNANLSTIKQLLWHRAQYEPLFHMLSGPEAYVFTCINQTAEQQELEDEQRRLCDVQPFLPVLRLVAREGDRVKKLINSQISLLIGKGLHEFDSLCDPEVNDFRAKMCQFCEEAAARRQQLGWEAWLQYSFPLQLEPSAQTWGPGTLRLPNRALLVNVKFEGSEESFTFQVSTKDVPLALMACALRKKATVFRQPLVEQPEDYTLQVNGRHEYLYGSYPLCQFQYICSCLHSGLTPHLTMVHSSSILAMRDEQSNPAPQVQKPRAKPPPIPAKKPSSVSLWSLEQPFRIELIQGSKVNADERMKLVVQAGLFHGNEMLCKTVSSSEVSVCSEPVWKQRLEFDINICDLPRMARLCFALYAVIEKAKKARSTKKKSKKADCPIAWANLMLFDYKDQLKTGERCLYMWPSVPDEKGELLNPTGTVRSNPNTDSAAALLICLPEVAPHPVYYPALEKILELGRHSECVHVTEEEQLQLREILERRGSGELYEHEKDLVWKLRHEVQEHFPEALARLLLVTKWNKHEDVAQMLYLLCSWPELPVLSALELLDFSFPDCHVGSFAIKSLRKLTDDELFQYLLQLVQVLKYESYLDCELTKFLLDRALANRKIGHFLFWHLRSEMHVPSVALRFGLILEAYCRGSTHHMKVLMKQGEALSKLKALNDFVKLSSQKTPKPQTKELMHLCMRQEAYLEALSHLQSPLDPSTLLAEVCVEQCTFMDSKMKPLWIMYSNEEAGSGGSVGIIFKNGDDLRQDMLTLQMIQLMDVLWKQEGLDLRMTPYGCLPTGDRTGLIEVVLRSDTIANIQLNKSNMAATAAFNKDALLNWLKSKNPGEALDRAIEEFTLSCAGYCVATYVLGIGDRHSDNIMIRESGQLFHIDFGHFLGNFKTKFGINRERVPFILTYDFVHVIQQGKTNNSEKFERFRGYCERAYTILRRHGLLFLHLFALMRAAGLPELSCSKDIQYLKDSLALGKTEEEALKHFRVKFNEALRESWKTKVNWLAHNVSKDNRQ
T2 sequence (P27986 whole entry partner): as the sequence (P27986 whole entry partner) above

For the compound `CC(C)Nc1nc(Nc2ccc3nccc(-c4ccccc4)c3c2)nc2[nH]cnc12` [MED1007-101, N6-isopropyl-N2-(4-phenylquinoline-6-yl)-9H-purine-2,6-diamine], the half-inhibitory concentration (IC50) in assay [1] was 441 nM; in assay [3], 616 nM; in assay [5], 67 nM; in assay [6], 8600 nM. In addition, the inhibition at 1 µM was found to be 49.5% in assay [2] and 75.7% in assay [4] (setting [7]). Besides, the values for the inhibition at 10 µM in assay [2] and in assay [4] (setting [8]) were 126% and 95.6%, respectively.

`CC(C)Oc1nc(Nc2ccc3ncccc3c2)nc2[nH]cnc12` [MED1007-104, N-(6-isopropoxy-9H-purine-2-yl) quinoline-6-amine]: the IC50 in assay [1] stood at 1360 nM; in assay [3] it was 1700 nM; in assay [6], 18100 nM. In addition, in assay [2], the inhibition at 1 µM is 60.3%. Also, the inhibition at 10 µM in assay [2] stood at 106%. Moreover, the “Inhibition rate % to PI3Kδ” value in assay [4] (1 μM (Table 7), 1 µM) is given as 57.14%; in assay [4] (10 μM (Table 7), 10 µM) it was 85.86%.

With `CCC(CC)Oc1nc(Nc2ccc3nccc(-c4ccccc4)c3c2)nc2[nH]cnc12` [MED1007-105, N-(6-(pentyl-3-yloxyl)-9H-purine-2-yl)-4-phenyl quinoline-6-amine], the IC50 in assay [1] is 420 nM; in assay [3], 1020 nM; in assay [6] it was 41000 nM. The inhibition at 1 µM in assay [2] stood at 60.4%; in assay [4] (setting [7]), 74.2%. Also, the values for the inhibition at 10 µM in assay [2] and in assay [4] (setting [8]) were 111% and 105%, respectively.

Take `c1ccc(-c2ccnc3ccc(Nc4nc(N5CCOCC5)c5nc[nH]c5n4)cc23)cc1` [MED1007-109S, N-(6-morpholine-9H-purine-2-yl)-4-phenyl quinoline-6-amine dihydrate di-methanesulfonate]: the IC50 in assay [1] is 612 nM; in assay [3], 696 nM; in assay [5], 116 nM; in assay [6], 18300 nM. The “Inhibition rate % to PI3K delta” value in assay [4] (0.4 μM (Table 8), 0.4 µM) was found to be 30.22%; in assay [4] (2 μM (Table 8), 2 µM) it was 57.34%; in assay [4] (10 μM (Table 8), 10 µM), 94.36%.

`c1cc(C2CC2)c2cc(Nc3nc(NC4CC4)c4nc[nH]c4n3)ccc2n1` [MED1007-115, N6-cyclopropyl-N2-(4-cyclopropylquinoline-6-yl)-9H-purine-2,6-diamine dihydrate di-methanesulfonate]: the IC50 in assay [1] turned out to be 1950 nM; in assay [3], 1570 nM; in assay [5], 260 nM; in assay [6] it was 7360 nM. Also, the inhibition at 0.4 µM in assay [4] (0.4 μM (Table 8), read-out: Inhibition rate % to PI3K delta) stood at 36.8%. Also, the inhibition at 2 µM in assay [4] (2 μM (Table 8), read-out: Inhibition rate % to PI3K delta) came out at 60.2%. In addition, the inhibition at 10 µM in assay [4] (10 μM (Table 8), read-out: Inhibition rate % to PI3K delta) is 94.6%.
